# Measured values taken from patent US20240124408A1 (Sanofi, priority 2020, published 2024).
# Tests used:
# Format in all cases: cell-based
# pig TRPM8 [1] = target: T1, pig TRPM8 (Sus scrofa, UniProt F1SM15); assay: In vitro pig TRPM8 automated patch-clamp assay (SyncroPatch 384PE, CHO cells); conditions: CHO cells expressing pig TRPM8, 28° C.
# T1 construct: expressed in transfected cells; host or cells: CHO (pcDNA5/FRT/TO vector; hygromycin B and blasticidin selection)
# Outline: (§1)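 Whole-cell automated patch clamp on engineered CHO lines at 28 °C, held at −60 mV, with −80 to +80 mV ramps every 5 s; one compound concentration per well. Peak current minus pre-addition baseline was normalised to no-compound control and Emax, and EC50 was fitted; 200 μM menthol wells served as control.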
# human TRPM8 [2] = target: T2, human TRPM8 (Homo sapiens, UniProt Q7Z2W7); assay: In vitro human TRPM8 fluorescence calcium flux assay (recombinant CHO cells, Fluo4-AM, FDSS6000); conditions: recombinant CHO cells expressing human TRPM8; menthol-related EC50, normalized to 100 μM menthol
# T2 construct: expressed in transfected cells; host or cells: CHO (p658 mammalian expression vector)
# Outline: (§2)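 Agonist EC50 values come from sixteen-point dose responses normalized to the 100 μM menthol maximum, fitted sigmoidally. Calcium rise was followed for 3 min post-addition in recombinant CHO lines (human or pig TRPM8). Cells were dye-loaded with 2 μM Fluo4-AM, 1 h at room temperature, probenecid-containing HBSS.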
# pig TRPM8 [3] = target: T1, pig TRPM8; assay: In vitro pig TRPM8 fluorescence calcium flux assay (recombinant CHO cells, Fluo4-AM, FDSS6000); conditions: recombinant CHO cells expressing pig TRPM8; menthol-related EC50, normalized to 100 μM menthol
# Outline: as §2
# human TRPM8 [4] = target: T2, human TRPM8; assay: In vitro human TRPM8 automated patch-clamp assay (SyncroPatch 384PE, CHO cells); conditions: CHO cells expressing human TRPM8, 28° C.
# Outline: as §1
# T1 sequence (F1SM15 1-1104): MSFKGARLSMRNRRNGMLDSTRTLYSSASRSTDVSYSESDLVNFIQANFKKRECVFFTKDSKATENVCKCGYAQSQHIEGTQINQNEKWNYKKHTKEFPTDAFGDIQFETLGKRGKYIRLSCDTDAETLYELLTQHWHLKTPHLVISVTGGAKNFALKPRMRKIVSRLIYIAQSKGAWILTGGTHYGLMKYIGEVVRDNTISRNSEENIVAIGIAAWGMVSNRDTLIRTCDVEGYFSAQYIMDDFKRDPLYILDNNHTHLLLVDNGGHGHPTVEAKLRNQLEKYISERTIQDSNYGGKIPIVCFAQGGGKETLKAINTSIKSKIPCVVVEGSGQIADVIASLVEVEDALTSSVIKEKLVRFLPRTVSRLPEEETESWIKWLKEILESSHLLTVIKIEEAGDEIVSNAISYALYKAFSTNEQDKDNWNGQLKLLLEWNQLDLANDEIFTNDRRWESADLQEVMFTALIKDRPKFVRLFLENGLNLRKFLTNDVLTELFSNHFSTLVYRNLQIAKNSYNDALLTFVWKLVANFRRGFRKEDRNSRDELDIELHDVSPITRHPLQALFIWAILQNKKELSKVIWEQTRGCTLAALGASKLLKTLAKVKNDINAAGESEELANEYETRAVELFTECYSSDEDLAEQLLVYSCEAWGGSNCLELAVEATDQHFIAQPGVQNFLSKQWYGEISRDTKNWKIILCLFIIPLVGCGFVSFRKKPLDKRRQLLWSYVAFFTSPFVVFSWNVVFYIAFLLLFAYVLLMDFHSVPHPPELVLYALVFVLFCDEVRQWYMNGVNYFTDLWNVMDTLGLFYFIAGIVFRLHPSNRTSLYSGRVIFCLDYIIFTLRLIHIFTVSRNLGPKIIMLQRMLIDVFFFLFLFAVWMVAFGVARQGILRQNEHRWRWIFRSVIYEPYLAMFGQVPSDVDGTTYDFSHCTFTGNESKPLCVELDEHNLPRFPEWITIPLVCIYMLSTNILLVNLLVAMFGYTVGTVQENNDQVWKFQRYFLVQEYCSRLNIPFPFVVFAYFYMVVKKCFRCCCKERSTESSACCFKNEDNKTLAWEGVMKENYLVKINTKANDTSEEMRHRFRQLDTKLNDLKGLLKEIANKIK
# T2 sequence (Q7Z2W7 whole entry): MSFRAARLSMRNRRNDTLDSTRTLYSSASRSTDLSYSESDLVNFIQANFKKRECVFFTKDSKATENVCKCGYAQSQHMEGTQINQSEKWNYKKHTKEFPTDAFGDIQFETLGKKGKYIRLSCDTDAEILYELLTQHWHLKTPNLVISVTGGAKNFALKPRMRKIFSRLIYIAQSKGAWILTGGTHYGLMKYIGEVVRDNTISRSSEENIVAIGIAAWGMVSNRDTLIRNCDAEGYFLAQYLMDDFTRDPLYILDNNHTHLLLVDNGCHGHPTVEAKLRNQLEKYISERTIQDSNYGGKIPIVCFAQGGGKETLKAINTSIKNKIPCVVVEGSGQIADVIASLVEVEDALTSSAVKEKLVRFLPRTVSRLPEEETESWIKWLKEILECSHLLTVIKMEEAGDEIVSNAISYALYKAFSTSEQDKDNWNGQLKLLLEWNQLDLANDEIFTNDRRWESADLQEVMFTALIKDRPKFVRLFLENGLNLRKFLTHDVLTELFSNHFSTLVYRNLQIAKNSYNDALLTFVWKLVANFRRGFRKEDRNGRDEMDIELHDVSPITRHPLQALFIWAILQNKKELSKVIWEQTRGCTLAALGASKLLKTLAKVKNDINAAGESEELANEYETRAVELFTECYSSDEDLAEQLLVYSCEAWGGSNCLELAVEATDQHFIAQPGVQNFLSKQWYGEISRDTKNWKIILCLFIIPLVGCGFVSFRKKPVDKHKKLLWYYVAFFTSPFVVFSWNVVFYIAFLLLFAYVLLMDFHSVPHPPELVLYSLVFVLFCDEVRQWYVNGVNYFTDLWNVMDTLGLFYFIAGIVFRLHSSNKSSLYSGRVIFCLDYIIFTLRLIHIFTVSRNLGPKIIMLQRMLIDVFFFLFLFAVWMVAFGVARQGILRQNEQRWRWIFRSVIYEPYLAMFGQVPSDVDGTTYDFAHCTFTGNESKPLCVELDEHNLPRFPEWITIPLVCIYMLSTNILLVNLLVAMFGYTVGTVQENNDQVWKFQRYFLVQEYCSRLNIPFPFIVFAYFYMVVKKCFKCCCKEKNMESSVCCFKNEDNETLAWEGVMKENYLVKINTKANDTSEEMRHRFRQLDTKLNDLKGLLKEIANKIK
Compound,EC50 (pig TRPM8 [1]) [µM],EC50 (human TRPM8 [2]) [µM],EC50 (pig TRPM8 [3]) [µM],EC50 (human TRPM8 [4]) [µM]
"CC(C)[C@@H]1CC[C@@H](C)C[C@@]1(O)C(=O)NCC(=O)c1cccs1 [Example 149, (1S,2S,5R)-1-hydroxy-2-isopropyl-5-methyl-N-[2-oxo-2-(2-thienyl)ethyl]cyclohexanecarboxamide]",1.56,0.006,0.002,2.3
"COc1ccccc1CCNC(=O)[C@]1(O)C[C@H](C)CC[C@H]1C(C)C [Example 155, (1S,2S,5R)-1-hydroxy-2-isopropyl-N-[2-(2-methoxyphenyl)ethyl]-5-methyl-cyclohexanecarboxamide]",3.5,0.0238,0.0174,1.2
"CC(CNC(=O)[C@]1(O)C[C@H](C)CC[C@H]1C(C)C)c1ccccc1 (stereo partly drawn) [Example 156, (1S,2S,5R)-1-hydroxy-2-isopropyl-5-methyl-N-(2-phenylpropyl)cyclohexanecarboxamide]",1.9,0.0424,0.0215,1.8
"CC(C)[C@@H]1CC[C@@H](C)C[C@@]1(O)C(=O)NCC(O)c1ccc(F)cc1 (stereo partly drawn) [Example 158, (1S,2S,5R)-N-[2-(4-fluorophenyl)-2-hydroxy-ethyl]-1-hydroxy-2-isopropyl-5-methyl-cyclohexanecarboxamide]",0.94,0.007,0.003,1.9
"CC(C)[C@@H]1CC[C@@H](C)C[C@@]1(O)C(=O)NCCc1cccc2c1OCC2 [Example 159, (1S,2S,5R)-N-[2-(2,3-dihydrobenzofuran-7-yl)ethyl]-1-hydroxy-2-isopropyl-5-methyl-cyclohexanecarboxamide]",1.03,0.0092,0.0049,1
"CC(C)[C@@H]1CC[C@@H](C)C[C@@]1(O)C(=O)NCC(O)c1ccccc1Cl (stereo partly drawn) [Example 160, (1S,2S,5R)-N-[2-(2-chlorophenyl)-2-hydroxy-ethyl]-1-hydroxy-2-isopropyl-5-methyl-cyclohexanecarboxamide]",0.48,0.0161,0.0164,0.62
"CC(C)[C@@H]1CC[C@@H](C)C[C@@]1(O)C(=O)NCC(C)(O)c1ccccc1 (stereo partly drawn) [Example 164, (1S,2S,5R)-1-hydroxy-N-(2-hydroxy-2-phenyl-propyl)-2-isopropyl-5-methyl-cyclohexanecarboxamide]",1.04,0.0343,0.0212,2.2
"CC(C)[C@@H]1CC[C@@H](C)C[C@@]1(O)C(=O)NC[C@H](F)c1ccccc1 [Example 179, (1S,2S,5R)—N-((2R)-2-fluoro-2-phenylethyl)-1-hydroxy-2-isopropyl-5-methylcyclohexane-1-carboxamide]",0.598,0.0011,0.0006,0.59
"CC(C)[C@@H]1CC[C@@H](C)C[C@@]1(O)C(=O)NC[C@@H](F)c1ccccc1 [Example 180, (1S,2S,5R)—N-((2S)-2-fluoro-2-phenylethyl)-1-hydroxy-2-isopropyl-5-methylcyclohexane-1-carboxamide]",1.01,0.003,0.0012,1.7
"COc1ccccc1C(F)(F)CNC(=O)[C@]1(O)C[C@H](C)CC[C@H]1C(C)C [Example 186, (1S,2S,5R)—N-[2,2-difluoro-2-(2-methoxyphenyl)ethyl]-1-hydroxy-2-isopropyl-5-methyl-cyclohexanecarboxamide]",2.1,0.0439,0.0261,1
"Cc1cccc(C(F)(F)CNC(=O)[C@]2(O)C[C@H](C)CC[C@H]2C(C)C)c1 [Example 187, (1S,2S,5R)—N-[2,2-difluoro-2-(3-methylphenyl)ethyl]-1-hydroxy-2-isopropyl-5-methyl-cyclohexanecarboxamide]",0.55,0.0338,0.0062,0.51
